Tests used:
CT26 tumor cells = assay: CT26 dual tumor model (mouse colon cancer model); format: in vivo; settings: I.T. single dose, study B
Description: For study A, treatment was started 5 days (1.25 mg/kg, 2.5 mg/kg and 5 mg/kg) after the tumor implantation, when the average tumors reached approximately 100 mm^3. For study B, treatment was started 8 days (0.6 mg/kg, and 10 mg/kg) after the tumor implantation, when the average tumors reached approximately 120 mm^3. The treatment scheme is described in Table 5 and Table 6.
All the mice in the study have two subcutaneous CT26 tumors. The “treated tumor” indicates the tumor with compound direct administration, while “untreated tumor” indicates the tumor without direct compound administration. Tumor volume was followed throughout the experiment. Tumor volume is measured two times weekly after the start of treatment. Tumor burden is calculated from caliper measurements by the formula for the volume of a prolate ellipsoid (L×W^2)/2 where L and W are the respective orthogonal length and width measurements (mm).

primary human PBMC = assay: Ex vivo human PBMC stimulation assay, IFNβ protein; format: cell-based; settings: 24 hours, average of five donors
Description: Human blood from 5 healthy donors was collected using 10.0 mL BD Vacutainer Sodium heparin tubes (cat #367874). Peripheral blood mononuclear cell (PBMC) isolation was done using SIGMA ACCUSPIN 50 ml Tubes (cat #A2055) and sigma ACCUSPIN System-HISTOPAQUE-1077 (cat #A7054) using protocol provided by manufacturer. […] PBMC were counted and finally suspended at 1×10e6/ml in RPMI (corning cat #10-041-CV) supplemented with 10% fetal bovine serum (FBS) (Gibco cat #20140.79). 1 ml of cell (1×10e6) were transferred into Falcon 5 mL Round Bottom Polypropylene Test Tube (cat #352063) and stimulated with different concentrations ([…]) for 24 hours in 5% CO2 incubator at 37° C. After 24 hours of incubation the tubes were centrifuged at 1400 rpm for 5 minutes and supernatants were harvested. Supernatant were stored in −80° C. for subsequent IFN measurement. IFNβ measurement was done using Human IFN-β Base Kit (Meso Scale Diagnostics cat #K151ADA) and protocol provided by manufacturer was used. IFN-beta estimation was done by reading assay plate at MESO SECTOR Imager 2400 and using MSD Discovery Workbench 4.0 program. After 24 hours IFNβ protein was analyzed. […] Results shown in Table 3 reflect an average of measurements conducted using five different donors.

Q: For `O=[P@]1(S)OC[C@H]2O[C@@H]3[C@H](F)[C@@H]2O[P@](=O)(S)OC[C@H]2O[C@H]([C@H](F)[C@@H]2O1)n1cnc2c(ncnc21)NC/C=C/CNc1ncnc2c1ncn23` [Compound (1a), (1R,3R,15E,28R,29R,30R,31R,34R,36R,39S,41R)-29,41-Difluoro-34,39-bis(sulfanyl)-2,33,35,38,40,42-hexaoxa-4,6,9,11,13,18,20,22,25,27-decaaza-34λ^5,39λ^5-diphosphaoctacyclo[28.6.4.1^3,36.1^28,31.0^4,8.0^7,12.0^19,24.0^23,27]dotetraconta-5,7,9,11,15,19,21,23,25-nonaene-34,39-dione], which “cure rate, treated tumors” value (CT26 tumor cells; 0.6 mg/kg) is on record?
A: 20%

Q: And the “animals cured of treated tumor at the end of study” value (CT26 tumor cells; 10 mg/kg)?
A: 100%

Q: What about the “curative effects, untreated tumors” value (CT26 tumor cells; 10 mg/kg) of the same molecule?
A: 80%

Q: What about the IFNβ (primary human PBMC; 0.1 μM) of the same molecule?
A: 21.3 ± 17.8 pg/mL

Q: What about the IFNβ (primary human PBMC; 1 μM) of the same molecule?
A: 227.5 ± 62.4 pg/mL

Q: What about the IFNβ (primary human PBMC; 10 μM) of the same molecule?
A: 540.2 ± 215.0 pg/mL

From US11691990B2, “Salts of compounds and crystals thereof” (Eisai R&D Management Co., Ltd., priority 2018, dated 2023)
